Calls of active or inactive are those of the source.
Tests used:
[1] = target: T1, Short transient receptor potential channel 4 (Mus musculus, UniProt Q9QUQ5); assay: mouse TRPC4 channel inhibitors, dose response, cell-based, HEK293 TRPC4/mu-opioid, Fluo-4 calcium (AID 434942); assay type: functional;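 further: potency of inhibitors blocking the TRPC4 calcium response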
T1 sequence (Q9QUQ5 whole entry): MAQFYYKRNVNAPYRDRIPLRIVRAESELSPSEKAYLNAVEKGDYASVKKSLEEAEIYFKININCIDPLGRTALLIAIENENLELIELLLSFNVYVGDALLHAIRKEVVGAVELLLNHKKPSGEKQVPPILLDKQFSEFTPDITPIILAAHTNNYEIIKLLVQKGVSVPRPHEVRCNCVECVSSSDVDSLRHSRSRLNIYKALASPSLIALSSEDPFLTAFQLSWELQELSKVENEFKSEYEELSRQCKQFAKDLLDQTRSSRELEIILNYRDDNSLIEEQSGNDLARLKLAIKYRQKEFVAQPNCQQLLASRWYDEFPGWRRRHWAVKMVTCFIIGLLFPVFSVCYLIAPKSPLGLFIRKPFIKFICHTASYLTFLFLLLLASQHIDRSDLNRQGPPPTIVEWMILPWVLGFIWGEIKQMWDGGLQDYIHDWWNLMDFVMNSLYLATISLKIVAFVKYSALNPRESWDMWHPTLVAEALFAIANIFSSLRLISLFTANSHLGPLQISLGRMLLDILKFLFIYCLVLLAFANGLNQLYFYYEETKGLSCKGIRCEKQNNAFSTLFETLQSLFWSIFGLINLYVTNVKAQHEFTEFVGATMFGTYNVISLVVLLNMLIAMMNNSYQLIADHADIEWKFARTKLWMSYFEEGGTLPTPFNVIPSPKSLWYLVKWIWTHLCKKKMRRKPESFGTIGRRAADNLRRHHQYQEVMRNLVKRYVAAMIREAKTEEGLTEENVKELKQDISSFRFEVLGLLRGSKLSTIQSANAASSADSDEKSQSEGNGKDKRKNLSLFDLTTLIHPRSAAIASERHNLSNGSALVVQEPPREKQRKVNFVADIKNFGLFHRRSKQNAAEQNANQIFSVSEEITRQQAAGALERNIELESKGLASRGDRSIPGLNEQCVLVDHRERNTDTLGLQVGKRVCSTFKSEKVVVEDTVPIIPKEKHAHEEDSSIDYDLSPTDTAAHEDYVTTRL

[2] = inhibitors of intracellular T. cruzi replication, confirmation, NIH3T3 host cells, beta-gal luminescence (AID 2044); assay type: functional, cell-based;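 further: intracellular parasites grown in NIH/3T3 mouse fibroblasts as host cells; luminescent beta-galactosidase reporter signal from transgenic T. cruzi replicating inside host cells; inhibitors lower the luminescence signal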
[3] = control 3'UTR Renilla luciferase suppression, dose response, counter-screen for Shn3 inhibitor project, cell-based, Clone20-Shn3RL, cherry-picked (AID 624133); assay type: functional
[4] = HEK293 cell cytotoxicity, dose response, cytotoxicity control, plate reader, cherry-picked samples (AID 743446); assay type: functional, cell-based
[5] = target: Heat shock protein HSP 90-alpha (Homo sapiens, UniProt P07900); assay type: functional, organism-based
Protein RecA = target: T2, Protein RecA (Mycobacterium tuberculosis, UniProt P9WHJ3); assay: Fluorescence Cell-Free Homogeneous Dose Retest to Identify Inhibitors of RecA-Intein Splicing Activity. [Related pubchem assays (depositor defined):AID2097, AID2223, AID489010, AID492950]; assay type: functional
T2 sequence (P9WHJ3 whole entry): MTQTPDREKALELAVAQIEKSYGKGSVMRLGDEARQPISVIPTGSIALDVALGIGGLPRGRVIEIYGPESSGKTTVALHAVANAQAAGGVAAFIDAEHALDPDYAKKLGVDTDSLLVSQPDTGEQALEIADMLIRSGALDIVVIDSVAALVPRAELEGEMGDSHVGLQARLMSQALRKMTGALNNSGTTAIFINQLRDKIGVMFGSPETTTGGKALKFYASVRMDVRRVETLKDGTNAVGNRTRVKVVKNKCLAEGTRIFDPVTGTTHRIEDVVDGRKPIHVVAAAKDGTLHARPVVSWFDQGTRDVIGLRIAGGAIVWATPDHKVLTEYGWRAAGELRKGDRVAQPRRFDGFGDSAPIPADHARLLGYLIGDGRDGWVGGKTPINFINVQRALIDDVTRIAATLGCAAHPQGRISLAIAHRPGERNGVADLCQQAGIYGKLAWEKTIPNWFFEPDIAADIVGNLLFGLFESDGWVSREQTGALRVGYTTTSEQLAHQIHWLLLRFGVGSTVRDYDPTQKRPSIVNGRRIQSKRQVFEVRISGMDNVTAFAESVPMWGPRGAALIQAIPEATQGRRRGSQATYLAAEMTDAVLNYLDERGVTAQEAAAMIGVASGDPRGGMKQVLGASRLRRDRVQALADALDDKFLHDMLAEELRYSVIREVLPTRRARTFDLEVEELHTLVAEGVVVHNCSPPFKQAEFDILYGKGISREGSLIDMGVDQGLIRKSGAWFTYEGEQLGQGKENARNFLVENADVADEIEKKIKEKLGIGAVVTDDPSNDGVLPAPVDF

[6] = Shn3 3'UTR reporter inhibitors, dose response, cell-based, Clone20 osteoblasts, firefly luciferase, cherry-picked (AID 624132); assay type: functional;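 further: firefly luciferase luminescence from reporter carrying the Shn3 3'UTR in osteoblasts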
[7] = target: T3, Polyadenylate-binding protein 1 (Homo sapiens, UniProt P11940); assay: PABP1 MLLE–PAM2 binding inhibitor potency, dose response, biochemical, fluorescence polarization, FITC-PAM2 peptide (AID 602259); assay type: functional; conditions: read-out: IC50_Mean
T3 sequence (P11940 whole entry): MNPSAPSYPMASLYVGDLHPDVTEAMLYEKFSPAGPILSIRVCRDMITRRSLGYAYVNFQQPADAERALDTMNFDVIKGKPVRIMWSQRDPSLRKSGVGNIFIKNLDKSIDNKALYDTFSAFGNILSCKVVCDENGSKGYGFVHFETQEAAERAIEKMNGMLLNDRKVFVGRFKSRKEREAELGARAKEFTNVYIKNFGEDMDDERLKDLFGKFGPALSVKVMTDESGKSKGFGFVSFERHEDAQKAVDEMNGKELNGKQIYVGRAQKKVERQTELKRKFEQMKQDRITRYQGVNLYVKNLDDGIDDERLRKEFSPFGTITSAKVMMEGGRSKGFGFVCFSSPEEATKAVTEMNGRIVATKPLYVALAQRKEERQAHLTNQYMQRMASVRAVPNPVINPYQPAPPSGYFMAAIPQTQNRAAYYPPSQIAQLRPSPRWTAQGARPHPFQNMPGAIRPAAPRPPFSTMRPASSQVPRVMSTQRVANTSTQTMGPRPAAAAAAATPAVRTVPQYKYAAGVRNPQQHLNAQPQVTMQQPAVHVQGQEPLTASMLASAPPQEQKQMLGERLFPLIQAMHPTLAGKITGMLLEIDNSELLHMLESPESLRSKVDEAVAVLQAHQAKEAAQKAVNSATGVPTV

[8] = MC4R antagonists, dose response, counter-screen for LGR2 antagonist project, cell-based, plate reader, cherry pick (AID 743444); assay type: functional;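 further: transfected HEK 293 cells stimulated with alpha-MSH peptide; potency of inhibitors of the alpha-MSH evoked signal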
Beta Lactamase = Beta Lactamase (Pseudomonas aeruginosa, UniProt Q932Y6); assay: beta-lactamase reporter inhibitor potency, dose response, artefact control for TLR9-MyD88 binding inhibitor project, BLA reporter cells, FRET fluorescence (AID 588341); assay type: cell-based;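 further: cell based assay in CHO-K1 cells stably expressing beta-lactamase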
Sequence of Beta Lactamase (Q932Y6 whole entry): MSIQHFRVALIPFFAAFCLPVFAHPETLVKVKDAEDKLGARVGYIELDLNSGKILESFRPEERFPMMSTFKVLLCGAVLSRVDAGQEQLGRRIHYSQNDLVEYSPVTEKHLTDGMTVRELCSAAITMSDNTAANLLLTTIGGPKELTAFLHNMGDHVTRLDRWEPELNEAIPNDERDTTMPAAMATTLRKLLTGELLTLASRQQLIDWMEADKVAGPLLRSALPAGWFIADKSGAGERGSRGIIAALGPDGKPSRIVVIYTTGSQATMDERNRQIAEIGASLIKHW

[9] = LGR2 antagonists, dose response, cell-based, HEK293, CRE-luciferase reporter, cherry pick, set 2 (AID 743343); assay type: functional;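 further: transfected cells were stimulated with diluted bursicon conditioned medium after compound addition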
[10] = HepG2 cell cytotoxicity, dose response, cytotoxicity control, plate reader, cherry-pick, antagonist series (AID 743416); assay type: functional, cell-based
[11] = inhibitors of PGC1a acetylation in cells, dose response, cell-based, cherry-picked samples (AID 720514); assay type: functional;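 further: potency may reflect raised or lowered acetylation signal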
[12] = cytotoxicity toward NIH3T3 fibroblasts, dose response, counter-screen, cell-based, ATP luminescence, mouse fibroblasts (AID 2010); assay type: functional;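 further: cells exposed to compound for about 90 hours before reading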
CHO = assay: cytotoxicity in TLR9-MyD88 CHO cells, dose response, cytotoxicity control for TLR9-MyD88 binding inhibitor project, cell-based, luminescence (AID 588339); assay type: functional, hamster; conditions: Cricetulus griseus;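 further: CHO cells stably coexpressing TLR9 and MyD88 fusions from primary screen; compound exposure lasted 48 hours before viability readout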
[13] = target: T3, Polyadenylate-binding protein 1; assay: PABP1 MLLE–PAM2 interaction inhibitors, dose response, miRNA deadenylation inhibitor project, biochemical, fluorescence polarization, Cy5-PAM2 peptide, secondary (AID 602260); assay type: functional; conditions: read-out: IC50_Mean
[14] = target: T4, Replicative DNA helicase DnaB (Mycobacterium tuberculosis, UniProt P9WMR3); assay: DnaB intein splicing inhibitors, dose response, biochemical, cell-free fluorescence (AID 449749); assay type: functional
T4 sequence (P9WMR3 whole entry): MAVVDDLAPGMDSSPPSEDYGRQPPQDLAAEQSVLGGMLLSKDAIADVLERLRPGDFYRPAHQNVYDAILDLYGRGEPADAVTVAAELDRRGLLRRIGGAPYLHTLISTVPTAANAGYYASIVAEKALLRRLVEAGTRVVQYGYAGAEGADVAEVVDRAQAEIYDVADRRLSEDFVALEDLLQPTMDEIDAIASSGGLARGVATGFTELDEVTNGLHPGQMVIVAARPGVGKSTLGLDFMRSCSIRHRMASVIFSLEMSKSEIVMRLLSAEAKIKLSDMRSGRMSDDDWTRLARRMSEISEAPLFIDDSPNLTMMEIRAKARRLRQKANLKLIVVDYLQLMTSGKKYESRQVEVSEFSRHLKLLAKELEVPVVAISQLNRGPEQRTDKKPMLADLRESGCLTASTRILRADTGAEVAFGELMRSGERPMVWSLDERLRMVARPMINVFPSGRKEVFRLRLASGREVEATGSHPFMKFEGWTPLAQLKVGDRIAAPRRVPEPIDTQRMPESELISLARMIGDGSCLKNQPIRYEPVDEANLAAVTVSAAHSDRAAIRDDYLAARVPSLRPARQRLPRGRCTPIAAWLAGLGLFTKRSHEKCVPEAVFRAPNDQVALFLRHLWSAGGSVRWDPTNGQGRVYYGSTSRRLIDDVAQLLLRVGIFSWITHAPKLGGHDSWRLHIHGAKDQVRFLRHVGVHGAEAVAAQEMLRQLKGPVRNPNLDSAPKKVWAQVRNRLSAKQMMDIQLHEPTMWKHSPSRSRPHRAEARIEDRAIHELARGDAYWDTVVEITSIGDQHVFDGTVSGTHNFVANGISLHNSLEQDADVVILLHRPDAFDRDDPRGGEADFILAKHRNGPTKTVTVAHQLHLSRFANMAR

[15] = HepG2 cell cytotoxicity, dose response, cytotoxicity control for Shn3 inhibitor project, CellTiter-Glo, cherry-picked (AID 624134); assay type: functional, cell-based
[16] = A549 cell cytotoxicity, dose response, cytotoxicity control, plate reader, cherry-pick, antagonist series (AID 743412); assay type: functional, cell-based
[17] = target: Bifunctional protein GlmU (Mycobacterium tuberculosis, UniProt P9WMN3); assay: Inhibitors of Mycobacterial Glucosamine-1-phosphate acetyl transferase (GlmU). Secondary screen.; design: species or system Mycobacterium tuberculosis H37Rv
Sequence of Bifunctional protein GlmU (P9WMN3 whole entry): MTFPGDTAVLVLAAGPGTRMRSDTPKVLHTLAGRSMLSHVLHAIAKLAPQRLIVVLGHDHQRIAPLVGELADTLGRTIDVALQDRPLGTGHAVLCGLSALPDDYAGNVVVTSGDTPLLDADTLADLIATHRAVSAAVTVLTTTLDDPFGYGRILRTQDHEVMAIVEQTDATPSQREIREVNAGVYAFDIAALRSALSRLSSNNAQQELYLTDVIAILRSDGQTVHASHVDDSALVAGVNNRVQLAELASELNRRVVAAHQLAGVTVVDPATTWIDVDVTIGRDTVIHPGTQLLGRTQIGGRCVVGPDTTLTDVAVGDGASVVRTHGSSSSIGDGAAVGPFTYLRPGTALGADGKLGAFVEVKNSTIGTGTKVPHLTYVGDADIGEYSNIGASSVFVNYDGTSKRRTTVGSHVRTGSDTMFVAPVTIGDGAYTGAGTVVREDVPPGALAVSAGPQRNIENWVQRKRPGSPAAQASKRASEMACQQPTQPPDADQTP

[18] = P. falciparum Dd2 growth inhibitors, dose response, SYBR Green, dry powder samples (AID 1159566); assay type: functional, cell-based;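 further: potency for growth inhibition with lower SYBR green DNA signal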
[19] = P. falciparum ATP4 D1247Y mutant growth inhibitors, dose response, NITD609-resistant line, SYBR Green, dry powder (AID 1159571); assay type: functional, cell-based;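 further: parasites synchronized at ring stage by sorbitol before testing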
[20] = P. falciparum Dd2 growth inhibitors, dose response, SYBR Green, cherry-picked samples (AID 1159567); assay type: functional, cell-based
[21] = HepG2 cell cytotoxicity, dose response, cytotoxicity control, plate reader, dry powder samples (AID 1159569); assay type: functional, cell-based;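 further: inhibitor potency with signal falling toward the positive control level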
[22] = P. falciparum 3D7-ScDHODH growth inhibitors, dose response, SYBR Green, dry powder samples (AID 1159570); assay type: functional, cell-based;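 further: parasite growth measured after 72 hours of compound exposure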
[23] = target: RNA-editing ligase 1, mitochondrial (Trypanosoma brucei brucei, UniProt P86926); assay: TbREL1 ligase inhibitors, dose response, biochemical, fluorescence, Trypanosoma brucei (AID 1117295); assay type: functional
Sequence of RNA-editing ligase 1, mitochondrial (P86926 whole entry): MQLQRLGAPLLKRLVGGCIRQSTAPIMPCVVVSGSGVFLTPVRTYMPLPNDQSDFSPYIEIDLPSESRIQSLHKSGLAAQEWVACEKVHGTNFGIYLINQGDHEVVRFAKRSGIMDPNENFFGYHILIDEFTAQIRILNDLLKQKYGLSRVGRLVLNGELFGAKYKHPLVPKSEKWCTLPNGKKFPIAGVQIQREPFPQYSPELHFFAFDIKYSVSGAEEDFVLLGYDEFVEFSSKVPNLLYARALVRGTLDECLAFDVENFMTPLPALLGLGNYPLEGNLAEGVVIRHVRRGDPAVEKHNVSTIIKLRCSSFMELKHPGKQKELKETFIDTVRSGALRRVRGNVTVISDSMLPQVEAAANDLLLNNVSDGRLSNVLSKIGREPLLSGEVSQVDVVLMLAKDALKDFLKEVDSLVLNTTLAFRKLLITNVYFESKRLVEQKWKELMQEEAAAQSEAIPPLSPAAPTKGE

**Q.** For `CCCNC(=O)c1nnsc1[S+]([O-])c1ccc(Cl)cc1` (stereo unspecified), which EC50 [1] is on record?
**A.** The EC50 was 7.5 µM (active).

**Q.** What about the EC50 [2] of the same compound?
**A.** The EC50 was 886 nM (active).

**Q.** What about the AC50 [3] of the same compound?
**A.** The AC50 was 6.98 µM (active).

**Q.** And the AC50 [4]?
**A.** The AC50 was 16 µM (active).

**Q.** And the AC50 [5]?
**A.** The AC50 was 2.2 µM (active).

**Q.** And the EC50 (Protein RecA)?
**A.** Its EC50 is 24.4 µM (inconclusive).

**Q.** And the AC50 [6]?
**A.** The AC50 was 1.26 µM (active).

**Q.** What about the IC50 [7] of the same compound?
**A.** Its IC50 is > 66 µM (inactive).

**Q.** What about the AC50 [8] of the same compound?
**A.** Its AC50 is 2.29 µM (active).

**Q.** What about the IC50 (Beta Lactamase) of the same compound?
**A.** Its IC50 is 15.6 µM (inactive).

**Q.** And the AC50 [9]?
**A.** Its AC50 is 1.85 µM (active).

**Q.** And the AC50 [10]?
**A.** The AC50 was 7.07 µM (active).

**Q.** And the AC50 [11]?
**A.** The AC50 was 12.8 µM (active).

**Q.** And the EC50 [12]?
**A.** The EC50 was 2.21 µM (active).

**Q.** What about the IC50 (CHO) of the same compound?
**A.** The IC50 was 1.81 µM (active).

**Q.** What about the IC50 [13] of the same compound?
**A.** Its IC50 is > 66 µM (inactive).

**Q.** What about the AC50 [14] of the same compound?
**A.** Its AC50 is 33.8 µM (active).

**Q.** What about the AC50 [15] of the same compound?
**A.** Its AC50 is 29.7 µM (active).

**Q.** And the AC50 [16]?
**A.** Its AC50 is 4.44 µM (active).

**Q.** What about the IC50 [17] of the same compound?
**A.** Its IC50 is 103 µM (active).

**Q.** With `COc1ccc(C#Cc2ccc([C@@H]3[C@@H](CO)N4C(=O)CN(C(=O)c5ccccc5)C[C@H]34)cc2)cc1` as the compound, how does the AC50 [18] read?
**A.** Its AC50 is 1.63 µM (active).

**Q.** And the AC50 [19]?
**A.** Its AC50 is 1.35 µM (active).

**Q.** What about the AC50 [20] of the same compound?
**A.** Its AC50 is 2.48 µM (active).

**Q.** What about the AC50 [21] of the same compound?
**A.** The AC50 was 33.4 µM (active).

**Q.** And the AC50 [22]?
**A.** Its AC50 is 1.99 µM (active).

**Q.** With `COC(=O)C1=C(C)N(C)C(NCc2ccccc2C(F)(F)F)=NC1c1cccc(F)c1` (stereo unspecified) as the compound, how does the IC50 [23] read?
**A.** The IC50 was > 96.6 µM (inactive).
